Key:
Assay type in all cases: in vivo
[1] = Ex.3 neuroprotective HIE rat model: brain weight; conditions: PND14
Protocol: Animals were then perfused transcardially with 0.9% saline solution at 4° C., and then with 4% paraformaldehyde in a 0.1-mol/L phosphate-buffered saline solution (pH 7.4) at 4° C. The brains were quickly isolated, weighed and immersed in the same fixative solution at 4° C. for 24 hours, dehydrated with a graded series of ethanol and xylene, and embedded in paraffin.
(§1) Newborn rat pups were assigned to one of the following 6 groups from postnatal day 4: Sham group (n=24), Vehicle group (n=14), E4 1 mg/kg/per day group (n=11), E4 5 mg/kg/per day group (n=14), E4 10 mg/kg/per day group (n=14), or E4 50 mg/kg/per day group (n=19). From postnatal day 4, rat pups were intraperitoneally injected either vehicle (Vehicle group) or E4 (1, 5, 10, or 50 mg/kg/per day in accordance to the E4 group assignment) or neither vehicle nor E4 (Sham group). At day 7, 30 minutes after last injection, animals were anesthetized with isoflurane (induction, 3.0%; maintenance, 1.5%), and the rat pups from Vehicle and E4 groups passed through surgery encompassing left common carotid artery double ligation and cut. After the procedure, the pups were returned to their dams and were allowed to recover for 1 hour. The pups were then placed in the humidified hypoxic in vivo cabinet (CoyLab, Grass Lake, Mich., USA). Hypoxia was produced by the inhalation of 11%-8% of oxygen balanced by nitrogen at decreased concentration of oxygen for 20 minutes, followed by inhalation of 8% oxygen and 92% nitrogen at constant concentration for 35 minutes. All the manipulations were performed at 37° C. The Sham group went through similar procedures without left common carotid artery ligation followed by hypoxia nor injection. Rat pups recovered with their dams and reared normally until being sacrificed at postnatal day 14.

[2] = tested on: intact cells in hippocampus and cortex; assay: Ex.3 neuroprotective HIE rat model: intact cell counting
Protocol: Paraformaldehyde-fixed paraffin embedded samples of the removed brains were coronally sectioned at the same level of the hippocampus region in accordance to the Paxinos rat brain atlas (Paxinos and Watson 2007. In: The rat brain in stereotaxic coordinates, 6th edition). Thickness of sections was 5 μm. Hematoxylin-eosin staining was performed. Briefly, sections were deparaffinized in xylene and rehydrated in graded ethanol concentrations before staining. Slides were stained with hematoxylin, rinsed for a few seconds in water, then placed in 1% eosin and washed, dehydrated, and coverslipped.
Intact cell counting was performed on hematoxylin-eosin-stained sections of the rat pups brains at magnification 400× in 3 fields of the respective brain area. Countings were performed in cortex and hippocampus (regions: dentate gyrus (DG), subgranular zone (SGZ), cornu ammonis (CA1, CA2/CA3)). The sections were analyzed with the aid of a microscope (Olympus BX51, Olympus, Tokyo, Japan), an image scanner (DotSlide Digital Virtual Microscopy, Olympus, Germany) and ImageJ software (NIH, US).
Intact cells are uninjured. Injured cells are characterized by a pale eosinophilic staining along with non-uniform nuclear densities-shrunken, condensed, or pale and enlarged.
as §1

[3] = Ex.8 therapeutic HIE rat model (E4 alone or combinations): rectal temperature; conditions: vs sham
Protocol: All the compounds used for in vivo studies were dissolved in absolute Ethanol (ETOH) and further diluted in saline solution at a final concentration of ETOH 10%. An equal volume (5 μ1/g) of the solution was injected intraperitoneally (ip) into the pups from study groups. Rat pups from the vehicle group were ip injected a saline solution containing 10% ETOH. Rat pups from the Sham group were not injected at all.
To study the therapeutic effect of estetrol, newborn rat pups were assigned to one of the following 14 groups at postnatal day 7 (FIG. 23(B)): Sham group (n=12), Vehicle (n=15), 5 mg/kg/day E4 (n=11), 10 mg/kg/day E4 (n=11), 5 mg/kg/day E4+1.6 mg/kg/day PROG (n=11), 10 mg/kg/day E4+1.6 mg/kg/day PROG (n=11), 5 mg/kg/day E4+16 mg/kg/day PROG (n=11), 10 mg/kg/day E4+16 mg/kg/day PROG (n=13), 5 mg/kg/day E4+136 ng//kg/day E2 (n=11), 10 mg/kg/day E4+136 ng/kg/day E2 (n=11), 5 mg/kg/day E4+1.6 mg/kg/day PROG+136 ng/kg/day E2 (n=12), 10 mg/kg/day E4+1.6 mg/kg/day PROG+136 ng/kg/day E2 (n=11), 5 mg/kg/day E4+16 mg/kg/day PROG+136 ng/kg/day E2 (n=11), 10 mg/kg/day E4+16 mg/kg/day PROG+136 ng/kg/day (n=12) groups. […]
The rectal temperature of the rat pups was measured with a multipurpose thermometer (BAT-10R, Physitemp Instruments Inc., Clifton, N.J., US) along with a rectal probe (RET-4, BioMedical Instruments, Zollnitz, Germany) at 0, 2, and 4 hours after exposure to hypoxic insult. […]

- rectal temperature ([3]; 5 mg/kg/day E4, 4 h after HI, E4+E2 and E4+16 mg/kg/day PROG+E2): significantly higher rectal temperature
Compound: C[C@]12CC[C@@H]3c4ccc(O)cc4CC[C@H]3[C@@H]1[C@@H](O)[C@@H](O)[C@@H]2O [E4, 1,3,5(10)-estratrien-3,15α,16α,17β-tetrol]
- brain weight ([1]; 1 mg/kg E4 ip PND4-7 before HI): 1.155 ± 0.022 g
- brain weight ([1]; 5 mg/kg E4 ip PND4-7 before HI): 1.181 ± 0.023 g
- brain weight ([1]; 10 mg/kg E4 ip PND4-7 before HI): 1.179 ± 0.012 g
- brain weight ([1]; 50 mg/kg E4 ip PND4-7 before HI): 1.163 ± 0.016 g
- number of intact cells per visual field ([2]; 1 mg/kg E4 ip PND4-7 before HI, CA1): 43.2±2.435
- number of intact cells per visual field ([2]; 1 mg/kg E4 ip PND4-7 before HI, CA2/CA3): 32.8±2.808
- number of intact cells per visual field ([2]; 1 mg/kg E4 ip PND4-7 before HI, SGZ): 35.6±2.75
- number of intact cells per visual field ([2]; 5 mg/kg E4 ip PND4-7 before HI, DG): 121.0±8.098
- number of intact cells per visual field ([2]; 5 mg/kg E4 ip PND4-7 before HI, SGZ): 42.846±3.884
- number of intact cells per visual field ([2]; 10 mg/kg E4 ip PND4-7 before HI, CA1): 57.4±4.566
- number of intact cells per visual field ([2]; 10 mg/kg E4 ip PND4-7 before HI, SGZ): 47.6±4.672
- number of intact cells per visual field ([2]; 50 mg/kg E4 ip PND4-7 before HI, CA2/CA3): 53.0±4.7
- number of intact cells per visual field ([2]; 50 mg/kg E4 ip PND4-7 before HI, SGZ): 30.714±3.615
- number of intact cells per visual field ([2]; 50 mg/kg E4 ip PND4-7 before HI, cortex): 76.286±3.962
- rectal temperature ([3]; 10 mg/kg/day E4, 4 h after HI, E4+E2 and E4+16 mg/kg/day PROG): significant increase of the rectal temperature
